Values after ≈ are worked out from the molar mass of the structure shown. Where two headings read alike, the source gives them in different places.
Tests used:
human recombinant FAAH = human recombinant FAAH (Homo sapiens (Human), UniProt O00519); experiment: In vitro inhibition of FAAH activity (fluorescent inhibitor screening kit, AMC arachidonoyl amide); format: biochemical
Procedure, shortened: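 Fluorogenic kit assay: AMC arachidonoyl amide is cleaved by human recombinant FAAH, read at 340-360/450-465 nm. Percent inhibition versus non-treated control; IC50 values derived from multiple compound concentrations where tested.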

human recombinant MAGL = human recombinant MAGL (Homo sapiens (Human), UniProt Q99685); experiment: In vitro inhibition of MAGL activity (inhibitor screening kit, 4-nitrophenylacetate); format: biochemical; conditions: for IC50: human recombinant MAGL
human recombinant MAGL, sequence (Q99685 whole entry): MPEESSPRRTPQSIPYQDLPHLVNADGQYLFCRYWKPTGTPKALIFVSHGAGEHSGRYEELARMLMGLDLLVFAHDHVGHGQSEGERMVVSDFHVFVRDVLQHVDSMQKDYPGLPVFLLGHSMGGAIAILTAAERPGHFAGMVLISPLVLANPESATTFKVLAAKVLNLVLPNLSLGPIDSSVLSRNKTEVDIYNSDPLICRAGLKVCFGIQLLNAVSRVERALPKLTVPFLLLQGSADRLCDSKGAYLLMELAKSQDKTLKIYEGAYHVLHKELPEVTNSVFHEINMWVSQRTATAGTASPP
Procedure, shortened: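 Percent inhibition derived from absorbance (405-412 nm) of treated wells relative to untreated enzyme control. Human recombinant MAGL with 4-nitrophenylacetate substrate, whose cleavage yields yellow 4-nitrophenol.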

[1] = Aqueous solubility in PBS buffer pH 7.4 (LC-MS); format: physicochemical; conditions: phosphate buffer, kinetic from dmso stock, PBS buffer pH 7.4, room temperature, spiked at 100 μM from DMSO stock
Protocol: Compounds as described herewith were analyzed for their aqueous solubility.
The aqueous solubility of compounds were determined using standard protocols. To illustrate the experimental protocol, the analysis of a representative compound is described. Exemplary compound of Example 158 (MW: 380.4 g/mol) was analyzed in a buffer system at specified pH (phosphate buffer, pH 7.4). This was accomplished by spiking a DMSO stock solution of the test compound at a final concentration of 100 μM in buffer.
Solubility calculation: This is a quantitative assay. The mixture at the end of the assay is filtered by 0.22 micron syringe filter and after 5× dilution in diluent, it was analyzed versus a calibration curve using LC-MS.

[2] = Plasma stability (LC-MS/MS, % parent compound remaining, half-life); format: in vitro ADME; conditions: human plasma; for half-life at 1 μM: 37° C., 0-240 mins, read-out: Human Plasma Stability (t1/2, min); for plasma stability and/or aqueous solubility compared to reference compound URB597: see Table 5
Protocol: Exemplary compounds described herewith were assayed for plasma stability (various species).
Plasma was removed from deep freezer and allowed to thaw at room temperature (or at 37° C. if needed). Plasma was then centrifuged at 4,000 rpm at RT for 10 min and supernatant was collected and used for the assay: • Drug test tubes: 297 μL plasma/drug test tube, duplicate/drug. • Blank test tubes: 297 μL plasma/Blank test tube, duplicate, too. (Optional, if assay system is stable and consistent) • T0 plasma tube: […] X No. of total sample tubes+50 μL extra for T0 extraction. • (Note: equivalent proportion of solvent mixture as added in drug test tubes will be added before T0 extraction!)
Take out the pre-warmed plasma tubes from the 37° C. incubator. Add 3 μL of 100 μM stock solution (or, equivalent proportion of the solvent mixture to T0 plasma tube for T0 extraction) to each corresponding sample tubes in order, vortex gently (3×) to mix. Finish the sample tubes orderly and quickly, then transfer them to the Thermomixer (program & 37° C. ready), and start the Thermomixer. Record starting time on paper & start the timer for 15 min for the 1st sampling time point.
Now add the equivalent amount of solvent mixture to the T0 plasma tube, mix, and transfer 50 μL plasma to each of the T0 extracting tubes, vortex 20s and placed on ice. Vortex 10s again before centrifuging the samples at 14,000 rpm for 5 min at 4° C.
Repeat the above procedures at each time point (15, 30, 60, 120, 240 min) by transferring 50 μL plasma samples from the testing tubes to the corresponding extracting tubes, in the same order and time scheme as in the addition of the drug to the plasma samples at the beginning of the study.
• Kel=Slope of LN % PCR vs time
Half life (t½)=0.693/Kel (1)

[3] = FAAH, values as listed in Table 5, read-out: IC50
[4] = human recombinant FAAH, read-out: Inhibition on FAAH activity (IC50)

human recombinant FAAH, sequence (O00519 whole entry): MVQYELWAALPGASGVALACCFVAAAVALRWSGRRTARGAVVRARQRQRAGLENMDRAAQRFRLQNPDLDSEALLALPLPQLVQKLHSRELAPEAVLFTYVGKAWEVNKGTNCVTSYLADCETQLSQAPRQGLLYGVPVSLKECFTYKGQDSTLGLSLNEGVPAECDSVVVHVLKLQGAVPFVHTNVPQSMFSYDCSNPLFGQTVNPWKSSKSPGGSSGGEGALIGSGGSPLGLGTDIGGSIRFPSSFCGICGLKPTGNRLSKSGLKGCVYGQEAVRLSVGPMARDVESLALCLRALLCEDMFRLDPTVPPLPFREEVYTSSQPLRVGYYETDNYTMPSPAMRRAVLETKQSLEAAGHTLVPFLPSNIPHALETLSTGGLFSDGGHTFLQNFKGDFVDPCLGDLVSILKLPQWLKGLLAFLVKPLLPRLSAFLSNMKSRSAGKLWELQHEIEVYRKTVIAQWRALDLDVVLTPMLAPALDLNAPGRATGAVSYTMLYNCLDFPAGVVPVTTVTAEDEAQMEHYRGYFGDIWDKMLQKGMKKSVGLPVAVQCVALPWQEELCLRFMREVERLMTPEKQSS

O=C(NC1CCCCC1)Oc1cccc(-c2cncc(-c3ccco3)c2)c1 [Example 51, 3-(5-(furan-2-yl)pyridin-3-yl)phenyl cyclohexylcarbamate]
IC50 (human recombinant FAAH; [3]): 76.1 nM
IC50 (human recombinant FAAH; [4]): 76.1 nM
IC50 (human recombinant MAGL): > 10000 nM
solubility [1]: 1.4 µM (≈ 0.507 µg/mL)
half-life at 1 μM [2]: 8 min

O=C(NC1CCCCCC1)Oc1cccc(-c2cncc(-c3cccs3)c2)c1 [Example 64, 3-(5-(thiophen-2-yl)pyridin-3-yl)phenyl cycloheptylcarbamate]
IC50 (human recombinant FAAH; [3]): 39.1 nM
IC50 (human recombinant FAAH; [4]): 39.1 nM
IC50 (human recombinant MAGL): > 10000 nM
half-life at 1 μM [2]: 24 min

COc1ccc(OC(=O)NC2CCCCCC2)cc1-c1cncc(-c2ncco2)c1 [Example 83, 4-methoxy-3-(5-(oxazol-2-yl)pyridin-3-yl)phenyl cycloheptylcarbamate]
IC50 (human recombinant FAAH; [3]): 111 nM
IC50 (human recombinant FAAH; [4]): 10 to 100 nM
IC50 (human recombinant MAGL): > 10000 nM
solubility [1]: 16.3 µM (≈ 6.64 µg/mL)
half-life at 1 μM [2]: 194 min
plasma stability and/or aqueous solubility compared to reference compound URB597 [2]: improved plasma stability, improved aqueous solubility, or improved plasma stability and aqueous solubility

O=C(NC1CCCCCC1)Oc1ccc(F)c(-c2cncc(-c3ncco3)c2)c1 [Example 87, 4-fluoro-3-(5-(oxazol-2-yl)pyridin-3-yl)phenyl cycloheptylcarbamate]
IC50 (human recombinant FAAH; [3]): 23.9 nM
IC50 (human recombinant FAAH; [4]): 23.9 nM
IC50 (human recombinant MAGL): > 10000 nM
solubility [1]: 8.6 µM (≈ 3.4 µg/mL)
half-life at 1 μM [2]: 7 min

O=C(NC1CCCCCC1)Oc1ccc(OC(F)(F)F)c(-c2cncc(-c3ncco3)c2)c1 [Example 91, 3-(5-(oxazol-2-yl)pyridin-3-yl)-4-(trifluoromethoxy)phenyl cycloheptylcarbamate]
IC50 (human recombinant FAAH; [3]): 492 nM
IC50 (human recombinant FAAH; [4]): 100 to 1000 nM
IC50 (human recombinant MAGL): > 10000 nM
solubility [1]: 2.4 µM (≈ 1.11 µg/mL)
half-life at 1 μM [2]: 14 min

O=C(Oc1cccc(-c2cncc(-c3nnco3)c2)c1)N1CC2(CCC2)C1 [Example 146, 3-(5-(1,3,4-oxadiazol-2-yl)pyridin-3-yl)phenyl 2-azaspiro[3.3]heptane-2-carboxylate]
IC50 (human recombinant FAAH; [3]): 401 nM
IC50 (human recombinant FAAH; [4]): 401 nM
IC50 (human recombinant MAGL): > 10000 nM
solubility [1]: 82.7 µM (≈ 30 µg/mL)
half-life at 1 μM [2]: 186 min
plasma stability and/or aqueous solubility compared to reference compound URB597 [2]: improved plasma stability, improved aqueous solubility, or improved plasma stability and aqueous solubility

O=C(NC1CCCCCC1)Oc1cc(O)cc(-c2cncc(-c3nnco3)c2)c1 [Example 165, 3-(5-(1,3,4-oxadiazol-2-yl)pyridin-3-yl)-5-hydroxyphenyl cycloheptylcarbamate]
IC50 (human recombinant FAAH; [3]): 25.8 nM
IC50 (human recombinant FAAH; [4]): 25.8 nM
IC50 (human recombinant MAGL): > 10000 nM
solubility [1]: 22.6 µM (≈ 8.91 µg/mL)
half-life at 1 μM [2]: 28 min

COc1cc(OC(=O)NC2CCCCCC2)cc(-c2cncc(-c3nnco3)c2)c1 [Example 179, 3-(5-(1,3,4-oxadiazol-2-yl)pyridin-3-yl)-5-methoxyphenyl cycloheptylcarbamate]
IC50 (human recombinant FAAH; [3]): 91.1 nM
IC50 (human recombinant FAAH; [4]): 91.1 nM
IC50 (human recombinant MAGL): 10000 to 50000 nM
solubility [1]: 9.2 µM (≈ 3.76 µg/mL)
half-life at 1 μM [2]: 18 min

O=C(NC1CCCCCC1)Oc1ccc(F)c(-c2cncc(-c3nnco3)c2)c1 [Example 194, 3-(5-(1,3,4-oxadiazol-2-yl)pyridin-3-yl)-4-fluorophenyl cycloheptylcarbamate]
IC50 (human recombinant FAAH; [3]): 49.1 nM
IC50 (human recombinant FAAH; [4]): 49.1 nM
IC50 (human recombinant MAGL): > 10000 nM
half-life at 1 μM [2]: 41 min
plasma stability and/or aqueous solubility compared to reference compound URB597 [2]: improved plasma stability, improved aqueous solubility, or improved plasma stability and aqueous solubility

O=C(NC1CCCCCC1)Oc1ccc(O)c(-c2cncc(-c3nnn[nH]3)c2)c1 [Example 249, 3-(5-(1H-tetrazol-5-yl)pyridin-3-yl)-4-hydroxyphenyl cycloheptylcarbamate]
IC50 (human recombinant FAAH; [4]): > 1000 nM
IC50 (human recombinant MAGL): > 10000 nM

CCCCCCCCNC(=O)Oc1ccc(OC)c(-c2cncc(-c3nnn[nH]3)c2)c1 [Example 250, 3-(5-(1H-tetrazol-5-yl)pyridin-3-yl)-4-methoxyphenyl octylcarbamate]
IC50 (human recombinant FAAH; [4]): 100 to 1000 nM
IC50 (human recombinant MAGL): ~10000 nM

COc1ccc(OC(=O)NCC2CCCCC2)cc1-c1cncc(-c2nnn[nH]2)c1 [Example 251, 3-(5-(1H-tetrazol-5-yl)pyridin-3-yl)-4-methoxyphenyl (cyclohexylmethyl)carbamate]
IC50 (human recombinant FAAH; [4]): > 1000 nM
IC50 (human recombinant MAGL): > 10000 nM

COc1ccc(OC(=O)NCc2ccccc2)cc1-c1cncc(-c2nnn[nH]2)c1 [Example 252, 3-(5-(1H-tetrazol-5-yl)pyridin-3-yl)-4-methoxyphenyl benzylcarbamate]
IC50 (human recombinant FAAH; [4]): > 1000 nM
IC50 (human recombinant MAGL): > 10000 nM

COc1ccc(OC(=O)NC2CCCC2)cc1-c1cncc(-c2nnn[nH]2)c1 [Example 253, 3-(5-(1H-tetrazol-5-yl)pyridin-3-yl)-4-methoxyphenyl cyclopentylcarbamate]
IC50 (human recombinant FAAH; [4]): > 1000 nM
IC50 (human recombinant MAGL): > 10000 nM

COc1ccc(OC(=O)NC2CCCCC2)cc1-c1cncc(-c2nnn[nH]2)c1 [Example 254, 3-(5-(1H-tetrazol-5-yl)pyridin-3-yl)-4-methoxyphenyl cyclohexylcarbamate]
IC50 (human recombinant FAAH; [4]): > 1000 nM
IC50 (human recombinant MAGL): > 10000 nM

COc1ccc(OC(=O)NC2CCCCCC2)cc1-c1cncc(-c2nnn[nH]2)c1 [Example 255, 3-(5-(1H-tetrazol-5-yl)pyridin-3-yl)-4-methoxyphenyl cycloheptylcarbamate]
IC50 (human recombinant FAAH; [4]): > 1000 nM
IC50 (human recombinant MAGL): > 10000 nM

O=C(NCC1CCCCC1)Oc1cccc(-c2cc(-c3nnco3)ccn2)c1 [Example 257, 3-(4-(1,3,4-oxadiazol-2-yl)pyridin-2-yl)phenyl (cyclohexylmethyl)carbamate]
IC50 (human recombinant FAAH; [4]): 10 to 100 nM
IC50 (human recombinant MAGL): > 10000 nM

O=C(NCc1ccccc1)Oc1cccc(-c2cc(-c3nnco3)ccn2)c1 [Example 258, 3-(4-(1,3,4-oxadiazol-2-yl)pyridin-2-yl)phenyl benzylcarbamate]
IC50 (human recombinant FAAH; [4]): 100 to 1000 nM
IC50 (human recombinant MAGL): > 10000 nM

O=C(NC1CCCC1)Oc1cccc(-c2cc(-c3nnco3)ccn2)c1 [Example 259, 3-(4-(1,3,4-oxadiazol-2-yl)pyridin-2-yl)phenyl cyclopentylcarbamate]
IC50 (human recombinant FAAH; [4]): 100 to 1000 nM
IC50 (human recombinant MAGL): > 10000 nM

CC1CCC(NC(=O)Oc2cccc(-c3cc(-c4nnco4)ccn3)c2)CC1 (centres unmarked) [Example 261, 3-(4-(1,3,4-oxadiazol-2-yl)pyridin-2-yl)phenyl (4-methylcyclohexyl)carbamate]
IC50 (human recombinant FAAH; [4]): 100 to 1000 nM
IC50 (human recombinant MAGL): > 1000 nM

O=C(NC1CCCCCC1)Oc1cccc(-c2cc(-c3nnco3)ccn2)c1 [Example 262, 3-(4-(1,3,4-oxadiazol-2-yl)pyridin-2-yl)phenyl cycloheptylcarbamate]
IC50 (human recombinant FAAH; [4]): 10 to 100 nM
IC50 (human recombinant MAGL): > 1000 nM

CCCCCCCCNC(=O)Oc1cccc(-c2cncc(-c3nnco3)n2)c1 [Example 263, 3-(6-(1,3,4-oxadiazol-2-yl)pyrazin-2-yl)phenyl octylcarbamate]
IC50 (human recombinant FAAH; [4]): 1 to 10 nM
IC50 (human recombinant MAGL): 1000 to 10000 nM

O=C(NCC1CCCCC1)Oc1cccc(-c2cncc(-c3nnco3)n2)c1 [Example 264, 3-(6-(1,3,4-oxadiazol-2-yl)pyrazin-2-yl)phenyl (cyclohexylmethyl)carbamate]
IC50 (human recombinant FAAH; [4]): 10 to 100 nM
IC50 (human recombinant MAGL): ~10000 nM

O=C(NCc1ccccc1)Oc1cccc(-c2cncc(-c3nnco3)n2)c1 [Example 265, 3-(6-(1,3,4-oxadiazol-2-yl)pyrazin-2-yl)phenyl benzylcarbamate]
IC50 (human recombinant FAAH; [4]): 100 to 1000 nM
IC50 (human recombinant MAGL): > 10000 nM

O=C(NC1CCCC1)Oc1cccc(-c2cncc(-c3nnco3)n2)c1 [Example 266, 3-(6-(1,3,4-oxadiazol-2-yl)pyrazin-2-yl)phenyl cyclopentylcarbamate]
IC50 (human recombinant FAAH; [4]): 10 to 100 nM
IC50 (human recombinant MAGL): 1000 to 10000 nM

O=C(NC1CCCCCC1)Oc1cccc(-c2cncc(-c3nnco3)n2)c1 [Example 268, 3-(6-(1,3,4-oxadiazol-2-yl)pyrazin-2-yl)phenyl cycloheptylcarbamate]
IC50 (human recombinant FAAH; [4]): 10 to 100 nM
IC50 (human recombinant MAGL): 1000 to 10000 nM

O=C(Nc1cnccc1Cl)N1CCN(Cc2ccc3c(c2)OC(F)(F)O3)CC1 [JNJ-42165279, reference compound]
IC50 (human recombinant FAAH; [4]): 106 nM
fold-selectivity over MAGL (selectivity index) (human recombinant MAGL; FAAH over MAGL): 473 times
IC50 (human recombinant MAGL): > 50000 nM
